Results taken from article PMC5288202, “Simultaneous inhibition of Vps34 kinase would enhance PI3Kδ inhibitor cytotoxicity in the B-cell malignancies” (Oncotarget, 2016).
pEC50, pIC50: −log10 of the molar value.

Columns and labels:
OCI-AML-3 [1] = test: Autophagy markers LC3BII and p62 (immunoblotting); assay type: cell-based
OCI-AML-3 [2] = test: Induction of apoptosis (PARP cleavage); assay type: cell-based; details: OCI-AML-3, concentrations up to 10 μM
MEC-2 [3] = test: Anti-proliferative effect; assay type: cell-based; details: MEC2, read-out: GI50 MEC-2
PI3Kγ = target: T1, PI3Kγ (Mus musculus, UniProt Q9JHG7); test: PI3K isoforms cellular selectivity assay (AKT phosphorylation, RAW264.7, C5a); assay type: cell-based; details: RAW264.7 cells, C5a stimulation
T1 construct: endogenous in cells; host or cells: RAW264.7 (ATCC)
T1 sequence (Q9JHG7 whole entry, canonical isoform): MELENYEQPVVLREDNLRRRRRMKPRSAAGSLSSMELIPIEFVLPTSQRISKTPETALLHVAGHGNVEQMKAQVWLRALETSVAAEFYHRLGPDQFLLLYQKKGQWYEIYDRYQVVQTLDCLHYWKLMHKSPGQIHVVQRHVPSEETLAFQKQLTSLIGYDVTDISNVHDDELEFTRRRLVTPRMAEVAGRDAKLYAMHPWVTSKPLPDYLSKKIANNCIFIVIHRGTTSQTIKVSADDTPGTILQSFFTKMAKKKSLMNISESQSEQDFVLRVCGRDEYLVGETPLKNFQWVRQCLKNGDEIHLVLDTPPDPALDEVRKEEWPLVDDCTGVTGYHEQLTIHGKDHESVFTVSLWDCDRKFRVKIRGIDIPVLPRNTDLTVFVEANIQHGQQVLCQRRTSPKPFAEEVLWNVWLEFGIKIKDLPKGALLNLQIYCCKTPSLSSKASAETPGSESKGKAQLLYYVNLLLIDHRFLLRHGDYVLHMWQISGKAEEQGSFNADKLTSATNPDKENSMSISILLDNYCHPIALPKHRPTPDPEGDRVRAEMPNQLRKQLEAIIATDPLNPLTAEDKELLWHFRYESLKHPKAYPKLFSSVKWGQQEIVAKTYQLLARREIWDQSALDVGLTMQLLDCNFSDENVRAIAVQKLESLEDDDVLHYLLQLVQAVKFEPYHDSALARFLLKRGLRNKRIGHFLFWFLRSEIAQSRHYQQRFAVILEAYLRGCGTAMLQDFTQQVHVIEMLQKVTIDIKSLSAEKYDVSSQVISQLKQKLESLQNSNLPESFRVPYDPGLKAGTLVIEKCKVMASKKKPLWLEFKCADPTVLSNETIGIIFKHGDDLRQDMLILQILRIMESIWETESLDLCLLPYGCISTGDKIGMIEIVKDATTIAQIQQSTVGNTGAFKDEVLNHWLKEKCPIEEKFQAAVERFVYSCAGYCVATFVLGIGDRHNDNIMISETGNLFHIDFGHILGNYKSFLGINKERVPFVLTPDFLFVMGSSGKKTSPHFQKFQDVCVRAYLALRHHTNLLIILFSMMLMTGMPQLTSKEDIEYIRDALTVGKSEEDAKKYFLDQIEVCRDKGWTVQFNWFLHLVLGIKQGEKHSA
Procedure: Cells were lysed and AKT phosphorylation was determined by Western Blotting. Intensity of the bands was determined using ImageJ 1.42q (NIH, USA) and normalized to total AKT (loading control).

VPS34 [4] = target: T2, VPS34 (Homo sapiens, UniProt Q8NEB9); test: ADP-Glo biochemical assay; details: purified protein, 50 μM ATP, read-out: IC50 against VPS34
T2 construct: purchased Invitrogen
T2 sequence (Q8NEB9 whole entry): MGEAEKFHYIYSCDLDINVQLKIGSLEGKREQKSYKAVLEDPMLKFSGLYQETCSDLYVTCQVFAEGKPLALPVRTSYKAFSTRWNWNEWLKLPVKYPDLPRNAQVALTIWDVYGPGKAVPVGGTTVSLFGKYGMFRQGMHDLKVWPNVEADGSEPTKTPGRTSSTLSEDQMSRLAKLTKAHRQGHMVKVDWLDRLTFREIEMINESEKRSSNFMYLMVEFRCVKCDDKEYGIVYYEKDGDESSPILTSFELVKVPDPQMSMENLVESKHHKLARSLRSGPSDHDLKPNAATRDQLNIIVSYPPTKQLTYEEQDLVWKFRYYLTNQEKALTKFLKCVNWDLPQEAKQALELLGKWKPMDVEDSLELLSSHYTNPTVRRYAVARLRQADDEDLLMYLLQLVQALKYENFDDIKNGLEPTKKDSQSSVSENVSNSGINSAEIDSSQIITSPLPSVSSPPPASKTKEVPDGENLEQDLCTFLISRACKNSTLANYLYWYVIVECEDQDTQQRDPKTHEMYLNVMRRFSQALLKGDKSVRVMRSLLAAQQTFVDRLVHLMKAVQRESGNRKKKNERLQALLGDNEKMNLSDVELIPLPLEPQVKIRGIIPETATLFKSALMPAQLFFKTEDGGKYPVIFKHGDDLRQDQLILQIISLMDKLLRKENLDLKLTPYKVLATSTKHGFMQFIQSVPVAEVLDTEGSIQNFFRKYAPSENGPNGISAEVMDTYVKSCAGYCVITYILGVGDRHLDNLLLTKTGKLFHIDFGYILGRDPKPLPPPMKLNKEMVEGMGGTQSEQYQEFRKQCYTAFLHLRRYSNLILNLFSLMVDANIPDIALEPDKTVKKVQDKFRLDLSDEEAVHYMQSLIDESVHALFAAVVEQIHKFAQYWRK
Procedure: (§1) The activities of PI3Kα, PI3Kβ, PI3Kδ, PI3Kγ, PI3KC2α, PI3KC2β, Vps34, PI4Kα and PI4Kβ were determined by using ADP-Glo assay, a fluorescence-based immunoassay that measures kinase activity in terms of the amount of ADP produced. A kinase titration was performed to determine the concentration. The amount of recombinant kinases was optimized to keep the reaction velocity within the linear range, to obtain an adequate difference between the resulting signals of sample in/out the presence of enzyme. The optimized enzyme concentrations for evaluating the inhibitory activities of compounds were chosen as follows: 0.16 μg/ml, 6.0 μg/ml, 1.0 μg/ml, 5.0 μg/ml, 5.0 μg/ml, 10.0 μg/ml, 1.2 μg/ml, 1.2 μg/ml and 1.0 μg/ml for PI3Kα, PI3Kβ, PI3Kδ, PI3Kγ, PI3KC2α, PI3KC2β, Vps34, PI4Kα and PI4Kβ, respectively. The ATP concentration was optimized, 10 μM ATP for PI3Kα and PI3Kβ, and 50 μM ATP for detection of the other seven kinases. The PI3Kα, PI3Kβ, PI3Kδ, PI3Kγ, PI3KC2α, PI3KC2β kinase reactions were carried out in 10 μl volume in a 384-well plate in the kinase reaction buffer containing 50 mM Hepes pH 7.5, 3 mM MgCl2, 1 mM EGTA, 1 mM NaCl, 0.03% CHAPS and 2 mM DTT. […] 10 μl kinase detection reagent was dded and incubated for 30 min at room temperature, before the luminescence signal was read with an envision PerkinElmer plate reader.

Ramos = test: Anti-proliferative effect; assay type: cell-based; details: Homo sapiens, read-out: GI50 Ramos
[5] = test system: FLT3-ITD positive primary AML cells; test: Growth of AML primagraft cells ex vivo; assay type: cell-based; details: 72 hours
Procedure: Mononuclear cells were isolated from AML patients. Mononuclear cells were isolated by density gradient centrifugation through Ficoll-Plaque Plus (Amersham Pharmacia Biotech AB, Uppsala, Sweden) at 2000 rpm for 30 minutes, followed by two washes in 1X PBS. Freeze-thawed cells were then cultured in liquid culture (DMEM, supplemented with 20% FBS). All blood and bone marrow samples from AML patients were obtained through written consent under approval of the Dana Farber Cancer Institute Institutional Review Board. The ethics committees approved the consent procedure.

pERK in MEC-2 cells = test: pERK immunoblotting; assay type: cell-based
Source text: The following antibodies were purchased from Cell Signaling Technology: Akt(#4691), Phospho-Akt(Thr308)(#4056), Phospho-Akt(Ser473)(#4060), GAPDH, GSK-3β(#9315), Phospho-GSK-3β(#9323), FoxO1(#2880), Phospho-FoxO1 (Thr24)/FoxO3a(Thr32)/FoxO4(Thr28)(#2599), PRAS40(#2691), Phospho-PRAS40 (Thr246)(#2997), 4E-BP1(#9644), p70 S6K(#2708), Phospho-p70 S6K (Thr389)(#9234). SQSTM1/p62 (D5E2)(#8025), LC3B(#12513). PARP(#9532), Caspase-3(#9665), Phospho-p44/42 MAPK (Erk1/2) (Thr202/Tyr204)(#4377), p44/42 MAPK (Erk1/2) (#4695), Phospho-NF-ΚB P65 (Ser 536)(#3033), NF-ΚB P65(#4764). Lysophosphatidic Acid (#sc-201053, Santa Cruz), Recombinant Human PDGF-BB (#220-BB, R&D), Recombinant Human C5a (Peprotech, #300-70), goat anti-IgM (#5C07615, Meridian). LC3B antibody (#3868, CST). Tubulin antibody (#8035, Santa Cruz). EEA1 antibody (#610456, BD Bioscience) and LAMP1 antibody (#24170, Abcam). Secondary antibodies, Alexa488-anti-mouse, Alexa594-anti-rabbit and Prolong gold mounting medium with DAPI were purchased from Invitrogen.

protein kinases = test: DiscoveRx's KinomeScan selectivity profile; assay type: binding; details: 1 μM
OCI-AML-2 = test: Anti-proliferative effect; assay type: cell-based; details: Homo sapiens, OCI-AML2, read-out: GI50 OCI-AML-2
VPS34 [6] = target: T2, VPS34; test: Kinase kinetic assay with varied ATP; assay type: biochemical; details: varied ATP concentrations
Procedure: Kinetic analyses of PI3Kδ and Vps34 were performed using a luminometric kinase assay varying the concentration of ATP using the ADP-Glo reagents (Promega). […] After 60 min incubation at RT, varied concentrations of ATP and 0.1 mM substrate (PIP2:PS for PI3Kδ, PI:PS for Vps34) were added and incubated for 60 min at 37° C. The overall rate of reaction was determined as the slope of the decreasing phase of the reaction. Each data point was collected in duplicate and kinetic parameters were obtained using Prism 5.0 (GraphPad Software, San Diego, CA).

[7] = test system: MV4-11 cell-inoculated xenograft; test: MV4-11 xenograft tumor model; assay type: in vivo
Source text: Six week old female nu/nu mice were purchased from the Shanghai Experimental Center, Chinese Science Academy (Shanghai). All animals were maintained in a specific pathogen-free facility and used according to the animal care regulations of Hefei Institutes of Physical Science Chinese Academy of Sciences, and all efforts were made to minimize animal suffering. To obtain an […] in the mice, cells were harvested during exponential growth. 7 million MV4-11 cells in PBS were suspended in a 1:1 mixture with Matrigel (BD Biosciences) and injected into the subcutaneous space on the right flank of nu/nu mice. Daily intraperitoneal injection was initiated when MV4-11 tumors had reached a size of 200 to 400 mm^3. Animals were then randomized into treatment groups of 5 mice each for efficacy studies. […] Body weight and tumor growth were measured daily after PI3KD/V-IN-01 treatment. Tumor volumes were calculated as follows: tumor volume (mm^3)=[(W^2× L)/2] in which width (W) is defined as the smaller of the two measurements and length(L) is defined as the larger of the two measurements.
TUNEL staining was performed using the POD in Situ Cell Death Detection kit (Roche, USA). Sections were deparaffinized in xylene, rehydrated in decreasing concentrations of ethanol, then treated by nuclease free Proteinase K for 15 min at room temperature before endogenous peroxidase was blocked in 3% H2O2 in methanol. Terminal deoxynucleotidyl transferase (TdT) in reaction buffer was applied to sections for 1h at 37°C. Following washes, the slides were covered by converter-POD solution for 30 min at 37°C. Apoptotic cells were detected after incubation in the 3, 3′-diaminobenzidine (DAB) chromogen (Beyotime Biotechnology) for approximately 8 min and slides were counterstained with hematoxylin.
Incubations with primary antibodies lasted overnight at 4°C. The secondary detection system was used to visualize antibody binding. Staining was developed with DAB; slides were counterstained with hematoxylin, dehydrated and mounted.

MEC-2 [8] = test: Autophagy markers LC3BII and p62 (immunoblotting); assay type: cell-based
PI3Kδ = PI3Kδ (Homo sapiens, UniProt O00329); test: biochemical
PI3Kδ, sequence (O00329 whole entry): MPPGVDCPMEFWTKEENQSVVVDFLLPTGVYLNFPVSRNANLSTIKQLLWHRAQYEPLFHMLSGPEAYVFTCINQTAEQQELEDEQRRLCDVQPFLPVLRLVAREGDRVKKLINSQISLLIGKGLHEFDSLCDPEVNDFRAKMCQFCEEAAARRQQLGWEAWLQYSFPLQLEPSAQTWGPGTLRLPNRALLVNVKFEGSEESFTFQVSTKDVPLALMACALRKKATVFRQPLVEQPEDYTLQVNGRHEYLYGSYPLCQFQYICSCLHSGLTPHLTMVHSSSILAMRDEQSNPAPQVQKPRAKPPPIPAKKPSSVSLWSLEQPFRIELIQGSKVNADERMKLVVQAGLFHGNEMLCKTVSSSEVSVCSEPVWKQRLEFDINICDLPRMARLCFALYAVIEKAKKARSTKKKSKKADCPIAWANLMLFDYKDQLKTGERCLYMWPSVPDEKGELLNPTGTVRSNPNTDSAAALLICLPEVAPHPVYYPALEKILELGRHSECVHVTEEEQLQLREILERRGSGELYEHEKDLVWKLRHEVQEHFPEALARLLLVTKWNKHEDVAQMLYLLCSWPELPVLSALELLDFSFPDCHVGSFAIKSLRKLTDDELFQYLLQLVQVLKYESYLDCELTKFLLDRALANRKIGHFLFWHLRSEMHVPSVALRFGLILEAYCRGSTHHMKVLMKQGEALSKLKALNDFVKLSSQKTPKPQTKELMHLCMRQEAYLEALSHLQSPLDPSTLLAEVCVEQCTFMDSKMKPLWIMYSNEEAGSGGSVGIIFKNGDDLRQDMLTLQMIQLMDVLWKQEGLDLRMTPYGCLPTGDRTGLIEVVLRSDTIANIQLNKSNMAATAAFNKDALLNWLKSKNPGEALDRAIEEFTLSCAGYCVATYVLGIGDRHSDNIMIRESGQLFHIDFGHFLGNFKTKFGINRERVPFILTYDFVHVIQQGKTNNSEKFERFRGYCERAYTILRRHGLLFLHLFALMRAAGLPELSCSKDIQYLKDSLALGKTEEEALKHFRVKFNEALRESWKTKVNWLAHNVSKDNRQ
PI3Kδ, sequence (P27986 whole entry partner): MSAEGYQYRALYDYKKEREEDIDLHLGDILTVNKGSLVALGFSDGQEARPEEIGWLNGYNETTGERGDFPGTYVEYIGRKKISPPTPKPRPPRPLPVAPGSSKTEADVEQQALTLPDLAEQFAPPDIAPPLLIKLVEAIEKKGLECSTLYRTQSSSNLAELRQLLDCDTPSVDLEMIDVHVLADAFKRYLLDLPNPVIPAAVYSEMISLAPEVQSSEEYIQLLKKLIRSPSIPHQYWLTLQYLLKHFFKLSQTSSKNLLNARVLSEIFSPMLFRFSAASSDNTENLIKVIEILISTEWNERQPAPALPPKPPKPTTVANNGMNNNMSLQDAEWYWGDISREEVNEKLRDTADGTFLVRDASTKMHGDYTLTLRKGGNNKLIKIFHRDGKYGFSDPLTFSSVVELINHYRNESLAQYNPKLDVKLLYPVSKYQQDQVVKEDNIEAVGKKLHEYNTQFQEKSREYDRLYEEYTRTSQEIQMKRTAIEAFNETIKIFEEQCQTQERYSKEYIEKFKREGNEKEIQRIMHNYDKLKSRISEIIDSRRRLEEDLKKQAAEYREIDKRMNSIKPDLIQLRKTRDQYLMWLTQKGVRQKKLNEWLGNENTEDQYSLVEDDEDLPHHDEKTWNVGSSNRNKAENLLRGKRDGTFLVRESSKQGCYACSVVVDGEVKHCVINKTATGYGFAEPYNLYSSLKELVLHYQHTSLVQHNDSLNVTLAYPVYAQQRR
Procedure: as §1

mTORC1 kinase = mTORC1 kinase (Homo sapiens, UniProt P42345); test: in vitro IP kinase assay; assay type: biochemical; details: activity-based in vitro IP kinase assay; read-out: EC50 mTORC1 kinase inhibition
[9] = immunohistochemistry, MV4-11 xenograft

For `Cc1nc(NC(=O)CN)sc1-c1cnc(Cl)c(NS(=O)(=O)c2ccc(C(C)(C)C)cc2)c1` [PI3KD/V-IN-01, 2-amino-N-(5-(5-(4-tert-butylphenylsulfonamido)-6-chloropyridin-3-yl)-4-methylthiazol-2-yl)acetamide], the “levels of the autophagy markers, LC3BII and p62” value (OCI-AML-3 [1]) was “concentration-dependent increase”, the induction of apoptosis (OCI-AML-3 [2]) was “no apoptosis was observed” and the GI50 (MEC-2 [3]) was 2400 nM. It also gave a pEC50 (PI3Kγ) of 6.73, a pIC50 (VPS34 [4]) of 7.72 and a GI50 (Ramos) of 5.4 µM. For the same compound, the inhibition at 1 µM [5] was over 85%, the “effect on pERK” value (pERK in MEC-2 cells) was “significantly inhibited” and the “S score (5)” value (protein kinases) was 0.00. The GI50 (OCI-AML-2) was 1000 nM, the “Mode of inhibition against Vps34” value (VPS34 [6]) was “ATP competitive inhibitor” and the “TGI (Tumor growth inhibition)” value ([7]; 50 mg/kg/day administered intraperitoneal, MV4-11 xenograft mice) was 86.8%. For the same compound, the “effect on body weight” value ([7]; 50 mg/kg/day, MV4-11 xenograft mice) was “no apparent effects on body weight”, the “apoptosis in tumor tissue (TUNEL stain)” value [7, 9] was “dose-dependently increased” and the “cell proliferation in tumor tissue (Ki67 stain)” value [7, 9] was “dose-dependently inhibited”. For the same compound, the “levels of the autophagy markers, LC3BII and p62” value (MEC-2 [8]) was “concentration-dependent increase”, the pIC50 (PI3Kδ) was 8.22 and the pEC50 (mTORC1 kinase) was 5.77.
